Source: ChEMBL document CHEMBL3621063, “Discovery of potent HIV-1 non-nucleoside reverse transcriptase inhibitors from arylthioacetanilide structural motif” (Eur J Med Chem, 2015)

Experiments:
[1] = test system: Human immunodeficiency virus 1; assay: Antiviral activity against HIV-1 3B infected in human MT4 cells assessed as cell viability after 5 days by MTT assay; format: functional, organism-based; conditions: Human immunodeficiency virus 1, 3B, MT4, 120 h
[2] = test system: Human immunodeficiency virus 1; assay: Antiviral activity against wild-type HIV-1 infected in human MT4 cells; format: functional, organism-based; conditions: Human immunodeficiency virus 1, MT4
[3] = test system: Human immunodeficiency virus 1; assay: Antiviral activity against HIV-1 harboring reverse transcriptase K103N/Y181C double mutant infected in human MT4 cells; format: functional, organism-based; conditions: Human immunodeficiency virus 1, MT4
[4] = Cytotoxicity against human MT4 cells; format: cell-based
[5] = Selectivity index, ratio of CC50 for human MT4 cells to EC50 for wild-type HIV-1 infected in human MT4 cells; format: toxicity, cell-based; conditions: uninfected and infected with wild-type HIV-1, read-out: Ratio CC50/EC50
[6] = Selectivity index, ratio of CC50 for human MT4 cells to EC50 for HIV-1 harboring reverse transcriptase K103N/Y181C double mutant infected in human MT4 cells; format: toxicity, cell-based; conditions: read-out: Ratio CC50/EC50

O=C(CSc1sc(Cl)nc1-c1ccc(Br)cc1Br)Nc1ccccc1[N+](=O)[O-]
EC50 [1]: 2.09 µM

O=C(CSc1nnsc1-c1cccc2ccccc12)Nc1cccnc1Cl
EC50 [2]: 0.019 µM
EC50 [3]: 5.11 µM
CC50 [4]: 121 µM
selectivity ratio [5]: 6440
selectivity ratio [6]: 24

O=C(CSc1nnsc1-c1cccc2ccccc12)Nc1ccccc1Br
EC50 [2]: 0.044 µM
EC50 [3]: 34.4 µM
CC50 [4]: 172 µM
selectivity ratio [5]: 3920
selectivity ratio [6]: 5
